Drawing on patent US20240051970A1, “COMPOUNDS AND COMPOSITIONS FOR TREATING CONDITIONS ASSOCIATED WITH STING ACTIVITY” (IFM Due, Inc., priority 2020, published 2024), this text covers EC50 for 14 compounds.

The target of this test is T1, hSTING (Homo sapiens, UniProt Q86WV6, G230A/H232R/R293Q/R71H).
T1 construct: host or cells: THP1-Dual KO-IFNAR2 cells
The test is described as follows: STING reporter assay (luciferase) in THP1-Dual KO-IFNAR2 cells activated with 2'3'cGAMP. The test is classed as cell-based. Particulars: 15 μM 2'3'cGAMP, 24 h. The procedure:
STING pathway activation by the compounds described herein was measured using THP1-Dual™ cells (KO-IFNAR2).
THP1-Dual™ KO-IFNAR2 Cells (obtained from invivogen) were maintained in RPMI, 10% FCS, 5 ml P/S, 2 mM L-glut, 10 mM Hepes, and 1 mM sodium pyruvate. Compounds were spotted in empty 384 well tissue culture plates (Greiner 781182) by Echo for a final concentration of 0.0017-100 μM. Cells were plated into the TC plates at 40 μL per well, 2×10E6 cells/mL. For activation with STING ligand, 2′3′cGAMP (MW 718.38, obtained from Invivogen), was prepared in Optimem media.
The following solutions were prepared for each 1×384 plate: • Solution A: 2 mL Optimem with one of the following stimuli: • 60 μL of 10 mM 2′3′cGAMP 4 150 μM stock • Solution B: 2 mL Optimem with 60 μL Lipofectamine 2000 4 Incubate 5 min at RT
2 mL of solution A and 2 ml Solution B was mixed and incubated for 20 min at room temperature (RT). 20 μL of transfection solution (A+B) was added on top of the plated cells, with a final 2′3′cGAMP concentration of 15 μM. The plates were then centrifuged immediately at 340 g for 1 minute, after which they were incubated at 37° C., 5% CO2, >98% humidity for 24 h. Luciferase reporter activity was then measured. EC50 values were calculated by using standard methods known in the art.
Luciferase reporter assay: 10 μL of supernatant from the assay was transferred to white 384-plate with flat bottom and squared wells. One pouch of QUANTI-Luc™ Plus was dissolved in 25 mL of water. 100 μL of QLC Stabilizer per 25 mL of QUANTI-Luc™ Plus solution was added. 50 μL of QUANTI-Luc™ Plus/QLC solution per well was then added. Luminescence was measured on a Platereader (e.g., Spectramax I3X (Molecular Devices GF3637001)).
Luciferase reporter activity was then measured. EC50 values were calculated by using standard methods known in the art.
Background: A reporter such as luciferase makes a cellular process visible.

T1 sequence (Q86WV6 whole entry R71H/G230A/H232R/R293Q): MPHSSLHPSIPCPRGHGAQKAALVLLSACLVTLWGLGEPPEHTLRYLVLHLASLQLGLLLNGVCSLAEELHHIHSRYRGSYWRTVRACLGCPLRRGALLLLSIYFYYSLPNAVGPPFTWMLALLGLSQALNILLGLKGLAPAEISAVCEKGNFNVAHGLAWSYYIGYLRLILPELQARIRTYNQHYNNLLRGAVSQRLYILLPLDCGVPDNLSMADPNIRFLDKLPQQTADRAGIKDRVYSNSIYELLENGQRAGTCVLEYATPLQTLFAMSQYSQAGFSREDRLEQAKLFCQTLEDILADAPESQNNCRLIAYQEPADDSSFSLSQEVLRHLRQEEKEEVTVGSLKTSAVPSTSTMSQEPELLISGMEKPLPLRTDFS

Broadly, the EC50 is the midpoint of the concentration-response curve. `Clc1cc(Nc2nc3cc(-c4ccc(N5CCCC5)nc4)ccc3[nH]2)cc2[nH]ccc12` [Compound 146, N-(4-chloro-1H-indol-6-yl)-5-[6-(pyrrolidin-1-yl)pyridin-3-yl]-1H-1,3-benzodiazol-2-amine] displayed an EC50 of 1000 to 5000 nM.

Regarding `CN(C)CCn1cc(-c2ccc3[nH]c(Nc4cc(Cl)c5cc[nH]c5c4)nc3c2)cn1` [Compound 147, N-(4-chloro-1H-indol-6-yl)-5-{1-[2-(dimethylamino)ethyl]-1H-pyrazol-4-yl}-1H-1,3-benzodiazol-2-amine], the EC50 fell in the range of 5000 to 100000 nM.

Consider `CC(C)(C)OC(=O)NC1CCC(c2ccc3[nH]c(Nc4cc(Cl)c5cc[nH]c5c4)nc3c2)CC1` (centres unmarked) [Compound 148, tert-butyl N-(4-{2-[(4-chloro-1H-indol-6-yl)amino]-1H-1,3-benzodiazol-5-yl}cyclohexyl)carbamate], for which the concentration giving a half-maximal response (EC50) fell in the range of 200 to 1000 nM.

`N#CC1(c2ccc(-c3ccc4[nH]c(Nc5cc(Cl)c6cc[nH]c6c5)nc4c3)cc2)CC1` [Compound 149, 1-(4-{2-[(4-chloro-1H-indol-6-yl)amino]-1H-1,3-benzodiazol-5-yl}phenyl)cyclopropane-1-carbonitrile]: the EC50 lay within 200 to 1000 nM.

Take `Cn1nccc1-c1ccc2[nH]c(Nc3cc(Cl)c4cc[nH]c4c3)nc2c1` [Compound 150, N-(4-chloro-1H-indol-6-yl)-5-(1-methyl-1H-pyrazol-5-yl)-1H-1,3-benzodiazol-2-amine]: the concentration for a half-maximal effect (EC50) lay in the range of 200 to 1000 nM.

For the compound `CC(C)(C)OC(=O)N1CCCC(c2ccc3[nH]c(Nc4cc(Cl)c5cc[nH]c5c4)nc3c2)C1` (centres unmarked) [Compound 151, tert-butyl 3-{2-[(4-chloro-1H-indol-6-yl)amino]-1H-1,3-benzodiazol-5-yl}piperidine-1-carboxylate], the concentration for a half-maximal effect (EC50) fell in the range of 200 to 1000 nM.

Take `CC(=O)N1CCC(c2ccc3[nH]c(Nc4cc(Cl)c5cc[nH]c5c4)nc3c2)CC1` [Compound 152, 1-(4-{2-[(4-chloro-1H-indol-6-yl)amino]-1H-1,3-benzodiazol-5-yl}piperidin-1-yl)ethan-1-one]: the concentration for a half-maximal effect (EC50) lay in the range of 1000 to 5000 nM.

The compound `FC(F)(F)CN1CCC(c2ccc3[nH]c(Nc4cc(Cl)c5cc[nH]c5c4)nc3c2)CC1` [Compound 153, N-(4-chloro-1H-indol-6-yl)-5-[1-(2,2,2-trifluoroethyl)piperidin-4-yl]-1H-1,3-benzodiazol-2-amine] had an EC50 of 200 to 1000 nM.

Consider `Clc1cc(Nc2nc3cc(C4CCOC4)ccc3[nH]2)cc2[nH]ccc12` (centres unmarked) [Compound 154, N-(4-chloro-1H-indol-6-yl)-5-(oxolan-3-yl)-1H-1,3-benzodiazol-2-amine], for which the EC50 was in the range of 200 to 1000 nM.

`CC(C)n1cc(-c2ccc3[nH]c(Nc4cc(Cl)c5cc[nH]c5c4)nc3c2)cn1` [Compound 155, N-(4-chloro-1H-indol-6-yl)-5-[1-(propan-2-yl)-1H-pyrazol-4-yl]-1H-1,3-benzodiazol-2-amine] showed a half-maximal effective concentration (EC50) of 200 to 1000 nM.

As for `Clc1cc(Nc2nc3cc(-c4cnn(CC5CC5)c4)ccc3[nH]2)cc2[nH]ccc12` [Compound 156, N-(4-chloro-1H-indol-6-yl)-5-[1-(cyclopropylmethyl)-1H-pyrazol-4-yl]-1H-1,3-benzodiazol-2-amine], the EC50 was in the range of 200 to 1000 nM.

Consider `COCCn1cc(-c2ccc3[nH]c(Nc4cc(Cl)c5cc[nH]c5c4)nc3c2)cn1` [Compound 158, N-(4-chloro-1H-indol-6-yl)-5-[1-(2-methoxyethyl)-1H-pyrazol-4-yl]-1H-1,3-benzodiazol-2-amine], for which the concentration giving a half-maximal response (EC50) lay in the range of 200 to 1000 nM.

Regarding `Clc1cc(Nc2nc3cc(-c4cnn(C5CCOCC5)c4)ccc3[nH]2)cc2[nH]ccc12` [Compound 159, N-(4-chloro-1H-indol-6-yl)-5-[1-(oxan-4-yl)-1H-pyrazol-4-yl]-1H-1,3-benzodiazol-2-amine], the concentration for a half-maximal effect (EC50) fell in the range of 200 to 1000 nM.

Compound `CN1CCC(c2ccc3[nH]c(Nc4cc(Cl)c5cc[nH]c5c4)nc3c2)CC1` [Compound 160, N-(4-chloro-1H-indol-6-yl)-5-(1-methylpiperidin-4-yl)-1H-1,3-benzodiazol-2-amine] gave an EC50 of 5000 to 100000 nM.
